Results reported in PMC4229385 (Circulation, 2014).

Biological target: V1AR (AVP type 1A receptor) (Homo sapiens, UniProt P37288)
Test: DAGR FRET assay, block of AVP-induced DAG generation at […]
Format: cell-based

Chain of V1AR (AVP type 1A receptor) (P37288 whole entry): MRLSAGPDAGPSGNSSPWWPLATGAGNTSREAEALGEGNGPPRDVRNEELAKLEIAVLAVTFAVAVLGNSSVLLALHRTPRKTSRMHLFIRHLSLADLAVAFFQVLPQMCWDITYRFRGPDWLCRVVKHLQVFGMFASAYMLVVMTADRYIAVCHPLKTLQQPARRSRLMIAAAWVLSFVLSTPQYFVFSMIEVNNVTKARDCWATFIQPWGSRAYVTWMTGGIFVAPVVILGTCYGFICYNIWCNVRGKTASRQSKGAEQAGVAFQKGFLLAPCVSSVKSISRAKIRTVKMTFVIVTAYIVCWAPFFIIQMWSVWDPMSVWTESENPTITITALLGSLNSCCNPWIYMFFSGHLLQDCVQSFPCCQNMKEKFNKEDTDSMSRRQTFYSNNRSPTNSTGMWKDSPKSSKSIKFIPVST

Compound: COc1ccc(S(=O)(=O)N2c3ccc(Cl)cc3[C@](O)(c3ccccc3Cl)[C@@H]2C(=O)N2CCC[C@H]2C(N)=O)cc1OC [SR 49059]
- DAGR FRET assay, block of AVP-induced DAG generation at 10 μM: it completely blocked AVP-dependent DAG production (Fig. 4E)
